What was measured:
Abl kinase = target: T1, Abl kinase (Homo sapiens, UniProt P00519); experiment: KinaseProfiler kinase inhibition assay, Abl; assay type: biochemical; conditions: 1 μM compound
T1 construct: purchased Millipore (KinaseProfiler Service)

Alk kinase = target: T2, Alk kinase (Homo sapiens, UniProt Q9UM73); experiment: KinaseProfiler kinase inhibition assay, Alk; assay type: biochemical; conditions: 1 μM compound
T2 construct: purchased Millipore (KinaseProfiler Service)

c-Src kinase = target: T3, c-Src kinase (Homo sapiens, UniProt P12931); experiment: KinaseProfiler kinase inhibition assay, c-Src; assay type: biochemical; conditions: 1 μM compound; read-out: % Inhibition @1 μM cSrc
T3 construct: purchased Millipore (KinaseProfiler Service)
T3 sequence (P12931 whole entry): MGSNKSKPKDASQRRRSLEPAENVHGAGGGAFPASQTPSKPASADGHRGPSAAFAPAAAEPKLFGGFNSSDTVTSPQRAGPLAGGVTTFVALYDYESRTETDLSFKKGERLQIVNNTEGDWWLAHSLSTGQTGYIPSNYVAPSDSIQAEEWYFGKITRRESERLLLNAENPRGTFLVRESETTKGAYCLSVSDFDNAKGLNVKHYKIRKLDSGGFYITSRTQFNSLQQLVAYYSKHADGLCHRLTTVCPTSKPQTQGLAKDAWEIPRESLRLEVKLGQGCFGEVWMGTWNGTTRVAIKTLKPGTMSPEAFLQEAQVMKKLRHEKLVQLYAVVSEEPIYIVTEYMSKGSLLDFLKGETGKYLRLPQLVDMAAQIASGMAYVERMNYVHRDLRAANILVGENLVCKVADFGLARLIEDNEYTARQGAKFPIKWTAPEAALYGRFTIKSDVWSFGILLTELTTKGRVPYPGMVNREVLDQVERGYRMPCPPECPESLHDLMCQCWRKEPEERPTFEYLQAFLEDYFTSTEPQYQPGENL

FGFR1 kinase = target: T4, FGFR1 kinase (Homo sapiens, UniProt P11362); experiment: KinaseProfiler kinase inhibition assay, FGFR1; assay type: biochemical; conditions: 1 μM compound
T4 construct: purchased Millipore (KinaseProfiler Service)
T4 sequence (P11362 22-822): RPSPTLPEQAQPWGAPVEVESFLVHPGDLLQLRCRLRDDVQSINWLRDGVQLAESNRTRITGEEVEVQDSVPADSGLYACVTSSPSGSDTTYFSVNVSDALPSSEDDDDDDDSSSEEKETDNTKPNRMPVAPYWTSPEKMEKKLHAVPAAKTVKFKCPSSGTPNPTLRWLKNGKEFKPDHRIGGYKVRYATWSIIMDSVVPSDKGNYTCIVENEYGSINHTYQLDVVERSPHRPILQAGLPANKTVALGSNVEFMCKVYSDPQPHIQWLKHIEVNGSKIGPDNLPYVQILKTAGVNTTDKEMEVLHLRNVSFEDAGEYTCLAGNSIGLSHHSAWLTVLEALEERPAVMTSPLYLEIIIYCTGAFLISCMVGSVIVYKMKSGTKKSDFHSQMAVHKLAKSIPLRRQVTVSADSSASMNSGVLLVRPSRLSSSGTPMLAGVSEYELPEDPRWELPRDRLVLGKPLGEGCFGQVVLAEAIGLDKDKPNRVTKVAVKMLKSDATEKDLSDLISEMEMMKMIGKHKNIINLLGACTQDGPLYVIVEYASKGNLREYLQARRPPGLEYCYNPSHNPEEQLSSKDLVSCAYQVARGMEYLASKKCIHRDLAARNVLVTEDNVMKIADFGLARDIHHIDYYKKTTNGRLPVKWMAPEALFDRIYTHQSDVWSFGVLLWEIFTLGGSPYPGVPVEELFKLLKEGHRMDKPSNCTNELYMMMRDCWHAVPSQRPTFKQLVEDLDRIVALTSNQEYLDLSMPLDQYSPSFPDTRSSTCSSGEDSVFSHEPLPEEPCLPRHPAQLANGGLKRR

KDR kinase = target: T5, KDR kinase (Homo sapiens, UniProt P35968); experiment: KinaseProfiler kinase inhibition assay, KDR; assay type: biochemical; conditions: 1 μM compound
T5 construct: purchased Millipore (KinaseProfiler Service)
T5 sequence (P35968 20-1356): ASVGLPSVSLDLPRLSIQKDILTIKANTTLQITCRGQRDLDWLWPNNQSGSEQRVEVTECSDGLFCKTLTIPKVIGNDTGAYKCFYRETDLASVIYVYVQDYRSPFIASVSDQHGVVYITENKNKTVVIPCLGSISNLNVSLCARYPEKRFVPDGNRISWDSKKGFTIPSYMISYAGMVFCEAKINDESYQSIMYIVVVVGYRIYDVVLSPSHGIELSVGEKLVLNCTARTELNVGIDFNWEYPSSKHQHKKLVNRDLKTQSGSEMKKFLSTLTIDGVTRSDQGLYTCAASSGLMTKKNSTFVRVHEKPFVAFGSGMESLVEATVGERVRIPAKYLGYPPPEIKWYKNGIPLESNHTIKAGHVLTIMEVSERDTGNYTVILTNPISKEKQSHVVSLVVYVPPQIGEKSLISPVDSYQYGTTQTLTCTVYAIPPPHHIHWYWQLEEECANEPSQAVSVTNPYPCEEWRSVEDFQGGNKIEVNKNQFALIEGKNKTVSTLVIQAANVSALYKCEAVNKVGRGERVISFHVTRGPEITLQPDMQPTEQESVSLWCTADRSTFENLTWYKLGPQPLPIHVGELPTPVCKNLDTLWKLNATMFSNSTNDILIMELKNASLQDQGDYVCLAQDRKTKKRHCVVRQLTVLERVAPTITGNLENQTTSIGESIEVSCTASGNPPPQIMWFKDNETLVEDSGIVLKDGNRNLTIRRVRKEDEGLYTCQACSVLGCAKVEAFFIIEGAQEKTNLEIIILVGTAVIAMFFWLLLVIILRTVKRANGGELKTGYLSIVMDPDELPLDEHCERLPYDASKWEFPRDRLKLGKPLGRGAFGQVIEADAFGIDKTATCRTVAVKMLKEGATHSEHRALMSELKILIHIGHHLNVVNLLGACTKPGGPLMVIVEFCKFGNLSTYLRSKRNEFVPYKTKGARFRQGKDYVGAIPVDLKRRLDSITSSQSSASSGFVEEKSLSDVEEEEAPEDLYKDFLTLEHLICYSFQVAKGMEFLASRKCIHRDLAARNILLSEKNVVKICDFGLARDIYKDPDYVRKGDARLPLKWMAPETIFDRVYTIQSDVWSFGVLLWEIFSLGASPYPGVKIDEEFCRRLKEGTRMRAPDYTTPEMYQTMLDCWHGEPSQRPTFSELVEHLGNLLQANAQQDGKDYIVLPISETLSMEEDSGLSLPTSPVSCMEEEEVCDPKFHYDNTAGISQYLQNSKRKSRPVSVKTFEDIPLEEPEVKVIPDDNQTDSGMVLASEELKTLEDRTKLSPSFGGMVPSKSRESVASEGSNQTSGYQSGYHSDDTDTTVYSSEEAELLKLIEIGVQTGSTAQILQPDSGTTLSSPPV

Ret kinase = target: T6, Ret kinase (Homo sapiens, UniProt P07949); experiment: KinaseProfiler kinase inhibition assay, Ret; assay type: biochemical; conditions: 1 μM compound
T6 construct: purchased Millipore (KinaseProfiler Service)
T6 sequence (P07949 29-1114): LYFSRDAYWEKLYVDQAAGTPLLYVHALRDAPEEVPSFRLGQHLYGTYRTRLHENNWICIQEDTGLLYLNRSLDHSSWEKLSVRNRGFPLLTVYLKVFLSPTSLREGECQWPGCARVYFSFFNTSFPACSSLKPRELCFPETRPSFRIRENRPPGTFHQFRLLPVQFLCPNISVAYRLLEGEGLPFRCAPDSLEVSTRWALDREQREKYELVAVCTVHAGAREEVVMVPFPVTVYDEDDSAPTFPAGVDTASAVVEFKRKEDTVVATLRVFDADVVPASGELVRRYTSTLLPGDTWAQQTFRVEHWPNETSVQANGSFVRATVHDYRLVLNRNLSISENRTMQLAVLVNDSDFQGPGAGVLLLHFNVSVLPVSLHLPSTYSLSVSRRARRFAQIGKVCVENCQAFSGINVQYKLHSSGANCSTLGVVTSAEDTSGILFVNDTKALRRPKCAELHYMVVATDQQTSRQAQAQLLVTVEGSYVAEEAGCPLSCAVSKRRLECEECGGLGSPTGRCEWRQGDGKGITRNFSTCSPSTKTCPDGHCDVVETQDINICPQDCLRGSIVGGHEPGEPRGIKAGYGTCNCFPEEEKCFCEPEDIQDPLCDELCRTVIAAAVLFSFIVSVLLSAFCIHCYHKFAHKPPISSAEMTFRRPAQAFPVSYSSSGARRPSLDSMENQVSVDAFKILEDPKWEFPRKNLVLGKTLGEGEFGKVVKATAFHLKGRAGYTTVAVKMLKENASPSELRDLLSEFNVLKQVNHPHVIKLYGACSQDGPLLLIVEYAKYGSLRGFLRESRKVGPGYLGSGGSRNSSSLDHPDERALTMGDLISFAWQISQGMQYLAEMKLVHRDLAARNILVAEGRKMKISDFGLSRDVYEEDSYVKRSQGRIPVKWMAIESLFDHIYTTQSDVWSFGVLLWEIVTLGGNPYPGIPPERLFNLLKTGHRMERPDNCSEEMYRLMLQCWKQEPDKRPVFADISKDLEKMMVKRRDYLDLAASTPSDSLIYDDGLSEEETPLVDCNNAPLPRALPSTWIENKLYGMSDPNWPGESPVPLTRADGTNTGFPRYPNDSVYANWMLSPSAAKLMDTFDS

Tie2 = target: T7, Tie2 (Homo sapiens, UniProt Q02763); experiment: KinaseProfiler kinase inhibition assay, Tie2; assay type: biochemical; conditions: 1 μM compound
T7 construct: purchased Millipore (KinaseProfiler Service)

AN3_CA = experiment: CellTiterblue viability, 72 hr, AN3_CA; assay type: cell-based; conditions: Homo sapiens, AN3-CA, AN3_CA cells
Description: (§1) A number of studies were performed to analyze the consequences of tyrosine kinase inhibition in cell lines. To do this, 1000 cells are seeded in 27 μl/well in 384-well microplates, which are then placed in a humidified CO2 incubator at 37° C. overnight. The next day, 3 μl/well of 10× concentrated drug is added and the plates are returned to the incubator for 72 hr. After 72 hr incubation, plates are removed and […] CellTiterblue (Promega) viability reagent is added. Plates are returned to the incubator for 3 hr, after which it is fluorescence measurements are read on the Victor X3 plate reader (Perkin Elmer). Data are analyzed using Excel (Microsoft), and GI50 values are determined using Prism (Graphpad).

Kato III = experiment: CellTiterblue viability, 72 hr, Kato III; assay type: cell-based; conditions: Homo sapiens, Kato III cells
Description: as §1

KG1a = experiment: CellTiterblue viability, 72 hr, KG1a; assay type: cell-based; conditions: Homo sapiens, KG-1a, KG1a cells
Description: as §1

RT112 = experiment: CellTiterblue viability, 72 hr, RT112; assay type: cell-based; conditions: Homo sapiens, RT-112, RT112 cells
Description: as §1

phospho-FGFR2 = target: T8, phospho-FGFR2 (Homo sapiens, UniProt P21802); experiment: phospho-FGFR ELISA on Kato III cells; assay type: cell-based; conditions: read-out: EC50 (nM) P-FGFR2, Kato III cells
T8 construct: endogenous in cells; host or cells: Kato III cells
Description: For the phospho-FGFR, the following assay Protocol was used. 25,000 cells are seeded in 90 μl/well in 96-well microplates, which are then placed in a humidified CO2 incubator at 37° C. overnight. 96-well ELISA plates (Mesoscale Discovery) are coated with capture antibody (R&D Systems Duo-Set) at 4 μg/ml, 30 μl/well. The next day, 10 μl/well of 10× concentrated drug is added and the plates are returned to the incubator for […]. ELISA plates are washed using an automated plate washer (BioTek Instruments). After 30 min, cells are inverted and gently tapped to remove excess medium, and immediately placed on ice. 30 μl mPer cell lysis reagent (Thermo Scientific) with protease and phosphatase inhibitors is added/well. After 15 min on ice, lysates are mixed and 30 μl transferred to the ELISA plate. Plates are incubated for 2 hr, washed, and 30 μl/well detection antibody is added. After 1 hr, plates are washed and 30 μl “SulfoTag” (MesoScale Discovery) detection reagent is added. After 1 hr, plates are washed and 150 μl/well read solution is added. Electrochemiluminescence is determined on the Mesoscale Discovery Sector Imager 2000. Data are analyzed using Excel (Microsoft), and EC50 values are determined using Prism (Graphpad).

MDA-MB134 = experiment: CellTiterblue viability, 72 hr, MDA-MB134; assay type: cell-based; conditions: MDA-MB134 cells
Description: as §1

T1 sequence (P00519 whole entry): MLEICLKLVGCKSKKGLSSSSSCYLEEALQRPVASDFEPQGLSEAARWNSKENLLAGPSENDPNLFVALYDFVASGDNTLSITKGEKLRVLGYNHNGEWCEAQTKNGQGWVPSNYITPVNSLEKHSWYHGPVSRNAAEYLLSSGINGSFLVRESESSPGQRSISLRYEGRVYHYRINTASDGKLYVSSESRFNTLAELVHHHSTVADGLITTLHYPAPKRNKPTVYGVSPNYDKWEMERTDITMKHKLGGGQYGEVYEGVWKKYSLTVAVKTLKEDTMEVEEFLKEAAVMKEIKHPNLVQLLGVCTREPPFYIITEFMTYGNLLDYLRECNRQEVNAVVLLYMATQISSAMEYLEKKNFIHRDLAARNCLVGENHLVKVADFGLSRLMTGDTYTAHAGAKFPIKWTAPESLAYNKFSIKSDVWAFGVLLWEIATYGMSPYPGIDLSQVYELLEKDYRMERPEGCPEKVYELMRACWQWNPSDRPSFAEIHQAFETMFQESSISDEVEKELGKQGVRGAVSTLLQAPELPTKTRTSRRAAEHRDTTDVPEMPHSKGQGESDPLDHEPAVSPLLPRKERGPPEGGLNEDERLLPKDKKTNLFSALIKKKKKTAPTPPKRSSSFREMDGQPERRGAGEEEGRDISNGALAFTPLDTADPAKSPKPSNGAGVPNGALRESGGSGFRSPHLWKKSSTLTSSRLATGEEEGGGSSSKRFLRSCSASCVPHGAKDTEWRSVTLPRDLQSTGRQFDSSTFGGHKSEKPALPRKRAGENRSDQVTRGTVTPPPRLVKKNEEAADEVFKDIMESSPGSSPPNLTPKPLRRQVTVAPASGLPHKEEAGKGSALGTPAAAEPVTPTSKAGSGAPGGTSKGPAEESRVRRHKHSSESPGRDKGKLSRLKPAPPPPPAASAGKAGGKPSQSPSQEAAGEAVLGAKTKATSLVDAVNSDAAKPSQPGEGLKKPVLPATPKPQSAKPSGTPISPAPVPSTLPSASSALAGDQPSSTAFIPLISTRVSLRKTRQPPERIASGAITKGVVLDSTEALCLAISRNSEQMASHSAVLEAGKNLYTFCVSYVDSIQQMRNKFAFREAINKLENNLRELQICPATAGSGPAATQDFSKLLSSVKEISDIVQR

Row | inhibition at 1 µM (Abl kinase) [%] | inhibition at 1 µM (Alk kinase) [%] | inhibition at 1 µM (c-Src kinase) [%] | inhibition at 1 µM (FGFR1 kinase) [%] | inhibition at 1 µM (KDR kinase) [%] | inhibition at 1 µM (Ret kinase) [%] | inhibition at 1 µM (Tie2) [%] | EC50 (phospho-FGFR2) [nM] | GI50 (MDA-MB134) [nM] | Compound | GI50 (AN3_CA) [nM] | GI50 (Kato III) [nM] | GI50 (KG1a) [nM] | GI50 (RT112) [nM]
1 | 45 | 3 | 47 | 102 | 97 | 75 | 58 | 88 |  | Cc1cc2c(F)c(Oc3cc(Nc4ccc(N5CCN(C)CC5)cc4)ncn3)ccc2[nH]1 [Example 2] | 490 | 165 | > 100 | > 100
2 | 47 | -2 | 46 | 102 | 97 | 75 | 61 | 93 |  | CCN1CCN(c2ccc(Nc3cc(Oc4ccc5[nH]c(C)cc5c4F)ncn3)cc2)CC1 [Example 3] | > 500 |  | > 100 | > 100
3 | 84 | 32 | 78 | 100 | 97 | 79 | 82 | 36 |  | Cc1cc2c(F)c(Oc3cc(Nc4ccc(N5CCN(C)CC5)cn4)ncn3)ccc2[nH]1 [Example 15] | 332 | 290 | > 100 | > 100
4 | 42 | 2 | 21 | 95 | 90 | 73 | 37 | > 100 |  | C/C=C/c1cc(Nc2cc(Oc3ccc4[nH]c(C)cc4c3F)ncn2)n[nH]1 [Example 17] | > 500 |  | > 100 | > 100
5 | 36 | 3 | 24 | 92 | 88 | 78 | 47 | > 100 |  | Cc1cc2c(F)c(Oc3cc(Nc4cc(-c5ccco5)[nH]n4)ncn3)ccc2[nH]1 [Example 20] | > 500 |  | > 100 | > 100
6 | 60 | 70 | 59 | 99 | 96 | 67 | 92 | 96 |  | Cc1cc2c(F)c(Oc3cc(Nc4ccc(N5CCNCC5)cc4)ncn3)ccc2[nH]1 [Example 11] | > 500 | > 500 | > 100 | > 100
7 | 62 | 6 | 47 | 95 | 97 | 78 | 59 | > 100 |  | Cc1cc2c(F)c(Oc3cc(Nc4cc(-c5ccccn5)[nH]n4)ncn3)ccc2[nH]1 [Example 6] | 573 | > 500 | > 100 | > 100
8 | 67 | 46 | 85 | 100 | 96 | 97 | 94 |  | 111 | CCN1CCN(c2ccc(Nc3ncnc(Oc4ccc5[nH]c(C)cc5c4F)c3C(N)=O)cc2)CC1 [Compound 68] | 79 | 23 | 32 | 11
9 | 73 | 54 | 70 | 101 | 97 | 74 | 82 | 38 |  | Cc1cc2c(F)c(Oc3cc(Nc4ccc(N5CCNCC5)cc4)ncn3)cc(F)c2[nH]1 [Compound 51] | 406 | 169 | > 100 | > 100
10 | -1 | -28 | 13 | 98 | 8 | -19 | 37 |  | 461 | CCN1CCN(c2ccc(Nc3ncnc(Oc4ccc5c(cc(C)n5C)c4F)c3C#N)cc2)CC1 [Compound 65] | > 500 | > 500 | > 500 | > 500
11 | -6 | -18 | -11 | 16 | -1 | -12 | 11 |  | > 500 | COc1c(Nc2ccc(N3CCN(C)CC3)cn2)ncnc1Oc1ccc2[nH]c(C)cc2c1F [Compound 44] | > 500 | > 500 | > 500 | > 500
12 | -6 | -40 | 12 | 99 | 94 | -26 | 30 |  | 8 | Cc1cc2c(F)c(Oc3ncnc(Nc4ccc(N5CCNCC5)cc4)c3C#N)ccc2[nH]1 [Compound 57] | > 500 | 51 | 4 | 33
13 | -6 | -31 | -6 | 34 | 1 | -30 | 11 |  | > 500 | Cc1cc2c(F)c(Oc3ncnc(Nc4ccc(N5CCN(C)CC5)cn4)c3N)ccc2[nH]1 [Compound 47] | > 500 | > 500 | > 500 | > 500
14 | -10 | -32 | -4 | 48 | -7 | -28 | 21 |  | > 500 | COc1c(Nc2ccc(N3CCN(C)CC3)cc2)ncnc1Oc1ccc2[nH]c(C)cc2c1F [Compound 43] | > 500 | > 500 | > 500 | > 500
15 | 2 | -41 | 8 | 41 | 5 | -35 | 12 |  | 241 | Cc1cc2c(F)c(Oc3ncnc(Nc4ccc(N5CCN(C)CC5)cn4)c3C)ccc2[nH]1 [Compound 41] | > 500 | > 500 | > 500 | > 500
16 | 64 | 2 | 54 | 92 | 90 | 79 | 75 | > 100 |  | Cc1cc2c(F)c(Oc3cc(Nc4cc(C5CC5)[nH]n4)ncn3)ccc2[nH]1 [Example 16] | > 500 |  | > 100 | > 100
17 | 3 | -30 | 8 | 101 | 97 | -30 | 21 |  | 20 | Cc1cc2c(F)c(Oc3ncnc(Nc4ccc(N5CCN(C)CC5)cc4)c3C#N)ccc2[nH]1 [Compound 54] | 214 | 12 | 4 | 103
